The structures appear in SMILES notation.

The test system of test [1] is Hard Red Winter (HRW) wheat varieties or wheat inbred lines. The test is described as follows: field and greenhouse experiments: effect of GA3 on plant height, heading, flowering and yield in GA sensitive and insensitive wheat genotypes. Type of test: in vivo. How it is done: A series of field and greenhouse experiments were conducted to understand the effect of GA3 on plant height, pollen dispersal and seed set in GA sensitive and insensitive wheat genotypes. Eight proprietary Hard Red Winter (HRW) wheat varieties or wheat inbred lines were used in this project at two locations. The plants were genotyped for the Rht1, Rht2, and Rht24 mutant alleles to determine which plants were GA3 sensitive or insensitive genotypes.
Commercially available GA3 was applied using a broadcast application to the wheat plants at various vegetative growth stages described by the Feekes Scale. GA3 was applied at different rates of active ingredient (ai)/acre to elucidate the growth response. Experimental treatments were: Untreated, 1 oz ai/acre applied at Feekes stage 6, 1 oz ai/acre applied sequentially at Feekes stage 6 and Feekes stage 8 (2 oz ai/acre total), and 1 oz ai/acre applied sequentially at Feekes stage 6, Feekes stage 8, and Feekes stage 10 (3 oz ai/acre total)

Another test has as its system winter wheat genotypes. The test is described as follows: production studies: sodium chlorate desiccant sprayed to delay male flowering. Format: in vivo. How it is done:
A series of production studies were conducted to understand how to delay male flowering in wheat seed production. Several winter wheat genotypes were planted in a split plot design and sprayed with a commercially available sodium chlorate desiccant at the highest labeled rate at Feekes stages 7 and 9. In most crops, desiccants are typically used to artificially accelerate the drying down of plant tissues. Here, the strategy was to slow growth rates in the male wheat plants to delay heading and subsequent flowering. […] The desiccant caused a slight 0 to 2 inch (0 to 5 cm) reduction in plant height.

As to `C=C1C[C@]23C[C@@]1(O)CC[C@H]2[C@@]12C=C[C@H](O)[C@@](C)(C(=O)O1)[C@H]2[C@@H]3C(=O)O` [GA3, gibberellin A3], the “change in heading and flowering” value in test [1] (GA insensitive genotypes) is “did not change”. For the same compound, the “effect on wheat plant height” value in test [1] (GA sensitive genotypes vs same genotype not treated) was “positive effect”. Moreover, the “wheat yield vs untreated plants” value in test [1] (GA sensitive genotypes, same GA3 treatment) is listed as “lower wheat yield”. The decrease of yield in test [1] (GA sensitive male genotypes) was 11%. The “differences in plant height with GA3 treatments” value in test [1] (plants with Rht1+Rht24 or Rht2+Rht24 mutant alleles (GA3 insensitive genotype combinations)) is listed as “did not show differences in plant height”.
On to `[Na+].[O-][Cl+2]([O-])[O-]` [sodium chlorate], for which, in the test on winter wheat genotypes (sprayed at Feekes stage 7 or 9 (both stages), FIG. 4), the inbred male yield result is on record as “reduced”. The “inbred male yield, comparison of stages” value in the test on winter wheat genotypes (sprayed at Feekes stage 9, FIG. 4) is listed as “greatest reduction”.
